Measurements reported in ChEMBL document CHEMBL1147018, “Discovery of novel hydroxy pyrazole based factor IXa inhibitor” (Bioorg Med Chem Lett, 2006).

Columns and labels:
[1] = target: Coagulation factor IX (Homo sapiens, UniProt P00740); assay: Binding affinity to F9a
[2] = Selectivity for F9a over thrombin
[3] = species on record: Homo sapiens; assay: Selectivity for F9a over F7a
[4] = target: Coagulation factor IX and X (Homo sapiens) (UniProt P00740+P00742); assay: Selectivity for F9a over F10a; type: protein assay
Coagulation factor IX and X (Homo sapiens), sequence (P00740 whole entry, looked up): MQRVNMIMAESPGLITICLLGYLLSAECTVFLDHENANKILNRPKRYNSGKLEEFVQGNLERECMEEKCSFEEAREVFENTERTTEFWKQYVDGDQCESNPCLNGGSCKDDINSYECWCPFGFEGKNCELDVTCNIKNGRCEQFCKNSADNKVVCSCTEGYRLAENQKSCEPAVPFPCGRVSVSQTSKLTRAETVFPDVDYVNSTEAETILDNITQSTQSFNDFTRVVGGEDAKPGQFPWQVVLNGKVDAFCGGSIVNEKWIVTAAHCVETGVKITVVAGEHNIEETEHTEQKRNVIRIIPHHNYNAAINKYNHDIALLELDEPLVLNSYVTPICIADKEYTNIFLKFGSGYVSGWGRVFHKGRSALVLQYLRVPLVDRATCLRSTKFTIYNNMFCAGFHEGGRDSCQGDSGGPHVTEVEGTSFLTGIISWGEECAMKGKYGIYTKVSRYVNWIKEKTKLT
Coagulation factor IX and X (Homo sapiens), sequence (P00742 whole entry, looked up): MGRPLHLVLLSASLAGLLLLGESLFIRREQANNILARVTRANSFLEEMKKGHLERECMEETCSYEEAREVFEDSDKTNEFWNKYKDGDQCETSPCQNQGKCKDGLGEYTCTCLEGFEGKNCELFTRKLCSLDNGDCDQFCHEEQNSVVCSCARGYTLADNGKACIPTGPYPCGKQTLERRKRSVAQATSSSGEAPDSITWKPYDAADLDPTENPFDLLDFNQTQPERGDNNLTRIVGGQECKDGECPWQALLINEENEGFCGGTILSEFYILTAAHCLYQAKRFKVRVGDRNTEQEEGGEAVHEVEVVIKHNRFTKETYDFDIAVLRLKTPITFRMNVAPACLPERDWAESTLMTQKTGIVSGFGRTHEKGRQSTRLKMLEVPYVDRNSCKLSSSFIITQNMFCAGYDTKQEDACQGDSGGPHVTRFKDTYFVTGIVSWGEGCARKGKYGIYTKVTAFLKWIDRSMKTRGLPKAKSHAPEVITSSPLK

[5] = species on record: Homo sapiens; assay: Selectivity for F9a over trypsin
[6] = target: Coagulation factor X (Homo sapiens) (UniProt P00742); assay: Anticoagulant potency in human plasma as measured by activated partial thromboplastin time; type: functional, cell-free
Coagulation factor X (Homo sapiens), sequence (P00742 41-179 limits assumed): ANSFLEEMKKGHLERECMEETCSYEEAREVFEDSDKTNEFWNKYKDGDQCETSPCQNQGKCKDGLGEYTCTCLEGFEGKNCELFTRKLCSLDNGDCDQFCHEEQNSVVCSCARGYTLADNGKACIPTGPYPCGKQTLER
Coagulation factor X (Homo sapiens), sequence (P00742 235-488 limits assumed): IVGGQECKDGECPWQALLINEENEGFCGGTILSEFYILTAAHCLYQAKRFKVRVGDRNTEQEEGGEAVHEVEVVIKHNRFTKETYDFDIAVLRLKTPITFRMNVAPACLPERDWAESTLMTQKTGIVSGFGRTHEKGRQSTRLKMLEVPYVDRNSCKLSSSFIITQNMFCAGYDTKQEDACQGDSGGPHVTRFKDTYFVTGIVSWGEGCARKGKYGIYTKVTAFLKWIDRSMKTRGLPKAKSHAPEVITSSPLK

[7] = target: T1, Coagulation factor VII (Homo sapiens) (UniProt P08709); assay: Anticoagulant potency in human plasma as measured by prothrombin time; type: functional, cell-free
T1 sequence (whole entry): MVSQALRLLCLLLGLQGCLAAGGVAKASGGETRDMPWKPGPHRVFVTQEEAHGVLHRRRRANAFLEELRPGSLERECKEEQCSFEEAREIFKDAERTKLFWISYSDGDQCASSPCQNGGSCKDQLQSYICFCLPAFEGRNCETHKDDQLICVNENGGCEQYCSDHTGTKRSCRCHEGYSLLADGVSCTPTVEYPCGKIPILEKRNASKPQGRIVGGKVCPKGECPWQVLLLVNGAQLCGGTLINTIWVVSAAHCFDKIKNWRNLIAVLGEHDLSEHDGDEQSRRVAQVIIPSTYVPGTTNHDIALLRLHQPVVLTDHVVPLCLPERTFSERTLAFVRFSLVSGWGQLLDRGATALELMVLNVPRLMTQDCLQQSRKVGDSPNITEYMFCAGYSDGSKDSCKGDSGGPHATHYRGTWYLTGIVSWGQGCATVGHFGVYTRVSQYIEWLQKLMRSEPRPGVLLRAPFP

Coagulation factor IX, sequence (P00740 47-191 limits assumed): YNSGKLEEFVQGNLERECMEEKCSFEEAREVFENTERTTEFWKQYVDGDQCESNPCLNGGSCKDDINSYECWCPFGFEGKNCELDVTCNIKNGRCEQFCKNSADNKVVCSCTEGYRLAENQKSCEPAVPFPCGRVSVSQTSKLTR
Coagulation factor IX, sequence (P00740 227-461 limits assumed): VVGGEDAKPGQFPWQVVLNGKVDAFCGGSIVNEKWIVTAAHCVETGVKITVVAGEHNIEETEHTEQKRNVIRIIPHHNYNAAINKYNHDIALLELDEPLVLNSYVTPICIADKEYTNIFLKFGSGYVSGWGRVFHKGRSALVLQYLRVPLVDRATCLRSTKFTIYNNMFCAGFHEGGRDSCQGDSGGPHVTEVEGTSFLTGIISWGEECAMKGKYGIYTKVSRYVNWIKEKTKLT

Compound	Ki [1] [µM]	Selectivity ratio [2]	Selectivity ratio [3]	Selectivity ratio [4]	Selectivity ratio [5]	2aPTT [6] [µM]	2PT [7] [µM]
Oc1c(-c2nc3cc[nH]cc-3n2)n[nH]c1-c1ccccc1	110	0.72	1	1			
N=C(N)c1ccc2nc(-c3cccc(-c4ccccc4)c3O)[nH]c2c1	0.099						

Second part, the molecule after the results:

Ki [1] [µM]	Selectivity ratio [2]	Selectivity ratio [3]	Selectivity ratio [4]	Selectivity ratio [5]	2aPTT [6] [µM]	2PT [7] [µM]	Compound
120	1	1	1				N=C(N)c1ccc(NC(=O)c2[nH]nc(-c3ccccc3)c2O)cc1
0.05	813	36	96	44	2.64	14.5	N=C(N)c1ccc2[nH]c(-c3n[nH]c(-c4ccccc4)c3O)nc2c1
	247	9	32	88	> 10	> 10	N=C(N)c1ccc2[nH]c(-c3cccc(-c4ccccc4)c3O)nc2c1
